Results reported in publication PMC6471197, “Biological Activity and In Silico Study of 3-Modified Derivatives of Betulin and Betulinic Aldehyde” (International Journal of Molecular Sciences, 2019).
Where two headings read alike, the source gives them in different places.

Tests used:
[1] = test system: MV-4-11 (biphenotypic B myelomonocytic leukaemia) cell line; assay: MTT antiproliferative assay on MV-4-11 cells; format: cell-based, human; conditions: MTT assay, Neg = negative in the concentration used
Protocol: (§1) The applied human cell lines such as MV-4-11 (biphenotypic B myelomonocytic leukaemia), A549 (lung adenocarcinoma), Du-145 (prostate), Hs294T (melanoma), MCF-7 (breast adenocarcinoma) and MCF-10A (normal mammary gland) were obtained from the American Type Culture Collection (ATCC, Rockville, MD, USA). The all cell lines are maintained at the Cell Culture Collection of the Institute of Immunology and Experimental Therapy (Wrocław, Poland). The cells were plated in 96-well plates (Sarstedt, Newton, MA, USA) at a density of 1 × 10^4 cells per well in 100 µL of appropriate culture medium overnight. Biphenotypic B myelomonocytic leukaemia (MV-4-11) cells were cultured in RPMI 1640 medium (Gibco, Scotland, UK) with GlutaMAX (Thermo-Fisher Scientific, Warsaw, Poland) adjusted to contain 1.0 mM sodium pyruvate (Sigma-Aldrich, Chemie GmbH, Steinheim, Germany). Human lung adenocarcinoma (A549) cells were cultured in mixture RPMI 1640 and Opti-MEM medium (Gibco, Scotland, UK) supplemented with GlutaMAX (ThermoFisher Scientific, Warsaw, Poland) and 2mM L-glutamine adjusted to contain 1.0 mM sodium pyruvate. Human prostate (Du-145) and human breast adenocarcinoma (MCF-7) cells were cultured in Eagle medium (IIET, Wrocław, Poland), supplemented with 2 mM L-glutamine adjusted to contain 1.0 mM sodium pyruvate. Human melanoma (Hs294T) cells were cultured in Dulbecco medium (Gibco, Scotland, UK) supplemented with 2 mM L-glutamine. The normal human mammary gland cells (MCF-10A) were cultured in Ham’s F-12 medium containing 2 mM L-glutamine, 5% horse serum, epidermal growth factor EGF (100 μL/100 mL of medium), hydrocortisone (1 mL/ 100 mL of medium), insulin (100 μL/100 mL of medium) and cholera toxin (0.1 mL/100 mL of medium). All applied culture media except MCF-10A were supplemented with 10% of FBS (MV-4-11 cultured with FBS derived from Sigma-Aldrich, Chemie GmbH, Steinheim, Germany, the other cell lines FBS HyClone Thermo-Fisher Scientific, Warsaw, Poland) and streptomycin (100 µg/mL), penicillin (100 U/mL) (both from Polfa, Tarchomin, Poland). The tested cell lines were grown at 37 °C in humid atmosphere saturated with 5% CO2. In our studies were used two assays for determination the cytotoxic activity in vitro of triterpene derivatives. By dissolving 1 mg of each tested compound in 100 µL of DMSO, stock solutions at a 10 mg/mL were obtained. Next, the stock solutions were diluted in appropriate culture medium to reach the required concentrations of compounds ranging from 0.1 to 100 µg/mL. The MTT assay was used for the cytotoxicity screening against biphenotypic B myelomonocytic leukaemia (MV-4-11). The SRB assay was performed for adherent cells such as A549, Du-145, Hs294T, MCF-7 and MCF-10A. Both assays were carried as described by Wietrzyk et al.. The triterpenes in given concentration were examined in triplicates in each experiment, which was repeated 3 times. The results of anticancer activity in vitro were presented as an IC50 in µM. Cisplatin and betulin 1 were used as reference substances.

[2] = test system: A549 (lung adenocarcinoma); assay: SRB antiproliferative assay on A549 cells; format: cell-based, human
Protocol: as §1

[3] = test system: MCF-10A (normal mammary gland); assay: SRB antiproliferative assay on MCF-10A cells; format: cell-based, human; conditions: Neg = negative in the concentration used
Protocol: as §1

Hs294T (melanoma) = assay: SRB antiproliferative assay on Hs294T cells; format: cell-based, human; conditions: for IC50: SRB assay
Protocol: as §1

[4] = test system: MCF-7 (breast adenocarcinoma); assay: SRB antiproliferative assay on MCF-7 cells; format: cell-based, human; conditions: for IC50: SRB assay
Protocol: as §1

Du-145 (prostate) = assay: SRB antiproliferative assay on Du-145 cells; format: cell-based, human; conditions: for IC50: SRB assay
Protocol: as §1

[5] = test system: A549, Du-145, Hs294T, MCF-7 and MCF-10A; assay: SRB antiproliferative assay, ranges over the cell line panel; format: cell-based; conditions: Homo sapiens
Protocol: The applied human cell lines such as MV-4-11 (biphenotypic B myelomonocytic leukaemia), A549 (lung adenocarcinoma), Du-145 (prostate), Hs294T (melanoma), MCF-7 (breast adenocarcinoma) and MCF-10A (normal mammary gland) were obtained from the American Type Culture Collection (ATCC, Rockville, MD, USA). The all cell lines are maintained at the Cell Culture Collection of the Institute of Immunology and Experimental Therapy (Wrocław, Poland). The cells were plated in 96-well plates (Sarstedt, Newton, MA, USA) at a density of 1 × 10^4 cells per well in 100 µL of appropriate culture medium overnight. Biphenotypic B myelomonocytic leukaemia (MV-4-11) cells were cultured in RPMI 1640 medium (Gibco, Scotland, UK) with GlutaMAX (Thermo-Fisher Scientific, Warsaw, Poland) adjusted to contain 1.0 mM sodium pyruvate (Sigma-Aldrich, Chemie GmbH, Steinheim, Germany). Human lung adenocarcinoma (A549) cells were cultured in mixture RPMI 1640 and Opti-MEM medium (Gibco, Scotland, UK) supplemented with GlutaMAX (ThermoFisher Scientific, Warsaw, Poland) and 2mM L-glutamine adjusted to contain 1.0 mM sodium pyruvate. Human prostate (Du-145) and human breast adenocarcinoma (MCF-7) cells were cultured in Eagle medium (IIET, Wrocław, Poland), supplemented with 2 mM L-glutamine adjusted to contain 1.0 mM sodium pyruvate. […]

[6] = SI = IC50 for normal mammary gland (MCF-10A)/IC50 on tumour cell line

With `C=C(C)[C@@H]1CC[C@]2(CO)CC[C@]3(C)[C@H](CC[C@@H]4[C@@]5(C)CC[C@H](O)C(C)(C)[C@@H]5CC[C@]43C)[C@@H]12` [Betulin 1, betulin] the IC50 ([1]; Homo sapiens, MV4-11) was 8.1 ± 2.9 µM, the IC50 ([2]; Homo sapiens, A549) was 8.6 ± 0.7 µM and the IC50 ([3]; Homo sapiens, MCF-10A) was 124 ± 41.6 µM. For the same compound, the IC50 (Hs294T (melanoma); Homo sapiens, Hs 294T) was 44.1 ± 7.2 µM, the IC50 ([4]; Homo sapiens, MCF7) was 26.2 ± 6.5 µM and the IC50 (Du-145 (prostate); Homo sapiens, DU-145) was 44 ± 19.4 µM.
`N.N.[Cl][Pt][Cl]` [Cisplatin, reference compound] showed an IC50 [1] of 1 ± 0.27 µM, an IC50 [2] of 4.3 ± 1.3 µM and an IC50 [3] of 14.7 ± 1 µM. For the same compound, the IC50 (Hs294T (melanoma)) was 6.3 ± 1.3 µM, the IC50 [4] was 7.7 ± 0.3 µM and the IC50 (Du-145 (prostate)) was 1.6 ± 0.3 µM.
Compound `C=C(C)C1CC[C@]2(CO)CC[C@]3(C)C(CCC4[C@@]5(C)CC[C@H](OC(C)=O)C(C)(C)C5CC[C@]43C)C12` (stereo partly drawn) [Compound 2, 3-acetylbetulin, reference compound] has an IC50 ([1]; Homo sapiens, MV4-11) of 27.2 ± 5.9 µM.
For `C=C(C)C1CC[C@]2(C=O)CC[C@]3(C)C(CCC4[C@@]5(C)CC[C@H](OC(C)=O)C(C)(C)C5CC[C@]43C)C12` (stereo partly drawn) [Compound 3, 3-acetylbetulinic aldehyde, reference compound], the IC50 ([1]; Homo sapiens, MV4-11) was 35 ± 12.8 µM.
With `C=C(C)C1CC[C@]2(CO)CC[C@]3(C)C(CCC4[C@@]5(C)CC[C@H](OC(=O)CC)C(C)(C)C5CC[C@]43C)C12` (stereo partly drawn) [Compound 5, 3-Propanoylbetulin] the IC50 ([1]; Homo sapiens, MV4-11) was 38.9 ± 11.8 µM.
`C=CC(=O)O[C@H]1CC[C@@]2(C)C(CC[C@]3(C)C2CCC2C4C(C(=C)C)CC[C@]4(CO)CC[C@]23C)C1(C)C` (stereo partly drawn) [Compound 6, 3-(2-Propenoyl)betulin] was tested, and the IC50 ([1]; Homo sapiens, MV4-11) was 4.2 ± 1.2 µM, the IC50 ([2]; Homo sapiens, A549) was 23.3 ± 1.8 µM and the IC50 ([3]; Homo sapiens, MCF-10A) was 120 ± 15.3 µM. For the same compound, the IC50 ([4]; Homo sapiens, MCF7) was 45.9 ± 3.8 µM and the IC50 (Du-145 (prostate); Homo sapiens, DU-145) was 84.5 ± 39.4 µM.
`C=C(C)C1CC[C@]2(CO)CC[C@]3(C)C(CCC4[C@@]5(C)CC[C@H](OC(=O)C#CC6CC6)C(C)(C)C5CC[C@]43C)C12` (stereo partly drawn) [Compound 7, 3-(3-Cyclopropyl-2-propynoyl)betulin] was tested, and the IC50 ([1]; Homo sapiens, MV4-11) was 62.4 ± 9.9 µM.
With `C=C(C)C1CC[C@]2(CO)CC[C@]3(C)C(CCC4[C@@]5(C)CC[C@H](OC(=O)C#Cc6ccccc6)C(C)(C)C5CC[C@]43C)C12` (stereo partly drawn) [Compound 8, 3-Phenylpropynoylbetulin] the “MV-4-11 IC50” value [1] was “Neg”.
Work on `C=C(C)C1CC[C@]2(CO)CC[C@]3(C)C(CCC4[C@@]5(C)CC[C@H](OC(=O)C#CC)C(C)(C)C5CC[C@]43C)C12` (stereo partly drawn) [Compound 9, 3-(2-Butynoyl)betulin] yielded an IC50 ([1]; Homo sapiens, MV4-11) of 4.5 ± 1.7 µM, an IC50 ([2]; Homo sapiens, A549) of 83.5 ± 25.3 µM and an IC50 ([3]; Homo sapiens, MCF-10A) of 71.7 ± 8.6 µM. The IC50 ([5]; range over A549, Du-145, Hs294T, MCF-7, MCF-10A, read-out: IC50 against the tested cell lines) was 7.3 to 83.5 µM, the IC50 ([5]; range over the three cell lines, read-out: IC50 towards Du-145, MCF-7 and Hs294T cells) was 7.3 to 10.6 µM and the IC50 (Hs294T (melanoma); Homo sapiens, Hs 294T) was 10.6 ± 4.3 µM. The “Selectivity Index (SI) towards Hs294T” value (Hs294T (melanoma); [6]) was 6.76, the IC50 ([4]; Homo sapiens, MCF7) was 10.4 ± 5.7 µM and the “Selectivity Index (SI) towards MCF-7” value [4, 6] was 6.89. The IC50 (Du-145 (prostate); Homo sapiens, DU-145) was 7.3 ± 0.8 µM and the “Selectivity Index (SI) towards Du-145” value (Du-145 (prostate); [6]) was 9.82.
`C=C(C)C1CC[C@]2(CO)CC[C@]3(C)C(CCC4[C@@]5(C)CC[C@H](OC(=O)OCC)C(C)(C)C5CC[C@]43C)C12` (stereo partly drawn) [Compound 10, 3-Ethoxycarbonylbetulin] was tested, and the IC50 ([1]; Homo sapiens, MV4-11) was 20 ± 1.5 µM.
`C=C(C)C1CC[C@]2(CO)CC[C@]3(C)C(CCC4[C@@]5(C)CC[C@H](OC(=O)OCCC)C(C)(C)C5CC[C@]43C)C12` (stereo partly drawn) [Compound 11, 3-Propoxycarbonylbetulin] gave an IC50 ([1]; Homo sapiens, MV4-11) of 30.8 ± 1.5 µM.
`C=CCOC(=O)O[C@H]1CC[C@@]2(C)C(CC[C@]3(C)C2CCC2C4C(C(=C)C)CC[C@]4(CO)CC[C@]23C)C1(C)C` (stereo partly drawn) [Compound 12, 3-Allyloxycarbonylbetulin] showed an IC50 ([1]; Homo sapiens, MV4-11) of 20.1 ± 4.7 µM.
